Activity calls are given as the source filed them.
Assays:
Mu-type opioid receptor = Mu-type opioid receptor (Homo sapiens, UniProt P35372); test: (§1) Counterscreen for agonists of heterodimerization of the mu 1 (OPRM1) and delta 1 (OPRD1) opioid receptors: Luminescence-based cell-based high throughput dose response assay to identify agonists of OPRM1 homodimerization.; format: functional
H4 = test: Luminescence Cell-Based Dose Response HTS to Identify Activators of 5'UTR Stem-Loop Driven Prion Protein mRNA Translation in H4 Neuroglioblastoma Cells. [Related pubchem assays: 1829 (Project Summary), 1814 (Primary HTS)]; format: functional; conditions: Homo sapiens
[1] = molecular target: Delta-type opioid receptor (Homo sapiens, UniProt P41143); test: as §1, with “of OPRD1” for “of OPRM1”, “homodimerization. [Related pubchem assays (depositor defined):AID504326, AID504355, AID504692, AID504904, AID504905]” for “homodimerization.”; format: functional
[2] = molecular target: T1, Heat shock factor protein 1 (Mus musculus, UniProt P38532); test: inhibition of MG132-induced HSE-luciferase signal, confirmation, cell-based, NIH3T3, luminescence, dose retest (AID 2382); format: functional;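 note: NIH3T3 fibroblasts with HSF1-driven luciferase reporter stressed by proteasome inhibitor MG132; luminescence from HSF1-driven luciferase expression after 8 hours of MG132 stress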
T1 sequence (P38532 whole entry): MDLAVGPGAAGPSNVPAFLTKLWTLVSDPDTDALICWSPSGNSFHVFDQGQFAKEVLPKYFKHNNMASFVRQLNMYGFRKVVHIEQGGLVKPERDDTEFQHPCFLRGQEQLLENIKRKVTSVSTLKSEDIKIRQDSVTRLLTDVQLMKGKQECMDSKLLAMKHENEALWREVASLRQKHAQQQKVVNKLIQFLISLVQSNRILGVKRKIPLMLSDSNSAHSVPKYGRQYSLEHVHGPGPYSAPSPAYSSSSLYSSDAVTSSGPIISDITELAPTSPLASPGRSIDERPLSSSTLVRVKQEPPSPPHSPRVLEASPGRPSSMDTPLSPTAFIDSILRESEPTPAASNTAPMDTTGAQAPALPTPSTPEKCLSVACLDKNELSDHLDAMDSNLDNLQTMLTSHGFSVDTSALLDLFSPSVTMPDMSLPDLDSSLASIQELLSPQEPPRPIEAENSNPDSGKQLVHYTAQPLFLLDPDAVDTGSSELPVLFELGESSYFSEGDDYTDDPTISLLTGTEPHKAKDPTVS

[3] = molecular target: 5-hydroxytryptamine receptor 5A (Homo sapiens, UniProt P47898); test: Counterscreen for agonists of OPRM1-OPRD1 heterodimerization: luminescence-based cell-based high throughput dose response assay to identify agonists of 5-hydroxytryptamine (serotonin) 5A receptor (HTR5A). [Related pubchem assays (depositor defined):AID504326, AID504355, AID504692, AID504904, AID504905]; format: functional
Vero = test: cells; format: functional; conditions: Chlorocebus sabaeus
Streptococcus = test: Group A Streptococcus viability loss, dose response, counter-screen for streptokinase expression inhibitor project, luminescence, BacTiterGlo (AID 1915); format: functional, organism-based;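 note: potency for reduction of bacterial viability or growth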
BJ [4] = test: cytotoxicity toward BJ-TERT-LT-ST fibroblasts, dose response, cell-based, RAS-independent, luminescence (AID 1935); format: functional; conditions: Homo sapiens;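 note: BJ fibroblasts immortalized with TERT plus LT and ST oncogenes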
[5] = cytotoxicity toward DRD oncogenic fibroblasts, dose response, cell-based, non-viral oncogenic, luminescence (AID 1934); format: functional; conditions: Homo sapiens
BJ [6] = test: cytotoxicity toward BJ-TERT fibroblasts, dose response, cell-based, RAS-independent, luminescence (AID 1933); format: functional; conditions: Homo sapiens
BJ [7] = test: cells; format: functional, cell-based; conditions: Homo sapiens
[8] = molecular target: T2, Tyrosine-protein phosphatase non-receptor type 7 (Homo sapiens, UniProt P35236); format: functional
T2 sequence (P35236 whole entry): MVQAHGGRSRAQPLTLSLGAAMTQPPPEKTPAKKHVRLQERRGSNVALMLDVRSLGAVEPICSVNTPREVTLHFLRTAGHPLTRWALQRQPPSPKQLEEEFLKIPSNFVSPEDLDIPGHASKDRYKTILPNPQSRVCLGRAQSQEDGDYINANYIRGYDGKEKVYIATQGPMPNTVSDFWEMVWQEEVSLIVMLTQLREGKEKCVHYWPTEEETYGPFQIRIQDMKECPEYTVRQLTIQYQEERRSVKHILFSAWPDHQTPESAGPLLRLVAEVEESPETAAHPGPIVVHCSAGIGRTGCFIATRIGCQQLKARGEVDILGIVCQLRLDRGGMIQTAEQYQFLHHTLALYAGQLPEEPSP

Streptokinase A = molecular target: T3, Streptokinase A (Streptococcus pyogenes serotype M1, UniProt P10520); test: S. pyogenes streptokinase expression inhibitors, potency, dose response, plasminogen activation absorbance, OD405 (AID 1914); format: functional, Streptococcus pyogenes M1 GAS;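 note: secreted streptokinase activity via plasminogen activation per viability signal from cell pellet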
T3 sequence (P10520 whole entry): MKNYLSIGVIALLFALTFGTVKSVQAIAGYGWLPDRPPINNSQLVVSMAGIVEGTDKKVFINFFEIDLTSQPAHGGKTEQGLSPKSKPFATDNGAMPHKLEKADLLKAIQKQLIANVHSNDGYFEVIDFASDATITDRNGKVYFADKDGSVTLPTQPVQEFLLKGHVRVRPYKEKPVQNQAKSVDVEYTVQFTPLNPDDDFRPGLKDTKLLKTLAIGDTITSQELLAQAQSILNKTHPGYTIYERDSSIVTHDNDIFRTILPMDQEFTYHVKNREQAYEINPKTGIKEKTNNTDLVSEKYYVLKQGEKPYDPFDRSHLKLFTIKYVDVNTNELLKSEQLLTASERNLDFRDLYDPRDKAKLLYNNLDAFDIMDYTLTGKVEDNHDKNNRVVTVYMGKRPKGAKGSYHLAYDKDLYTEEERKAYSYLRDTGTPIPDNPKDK

[9] = molecular target: T4, Tyrosine-protein phosphatase non-receptor type 22 (Homo sapiens, UniProt Q9Y2R2); format: functional
T4 sequence (Q9Y2R2 whole entry): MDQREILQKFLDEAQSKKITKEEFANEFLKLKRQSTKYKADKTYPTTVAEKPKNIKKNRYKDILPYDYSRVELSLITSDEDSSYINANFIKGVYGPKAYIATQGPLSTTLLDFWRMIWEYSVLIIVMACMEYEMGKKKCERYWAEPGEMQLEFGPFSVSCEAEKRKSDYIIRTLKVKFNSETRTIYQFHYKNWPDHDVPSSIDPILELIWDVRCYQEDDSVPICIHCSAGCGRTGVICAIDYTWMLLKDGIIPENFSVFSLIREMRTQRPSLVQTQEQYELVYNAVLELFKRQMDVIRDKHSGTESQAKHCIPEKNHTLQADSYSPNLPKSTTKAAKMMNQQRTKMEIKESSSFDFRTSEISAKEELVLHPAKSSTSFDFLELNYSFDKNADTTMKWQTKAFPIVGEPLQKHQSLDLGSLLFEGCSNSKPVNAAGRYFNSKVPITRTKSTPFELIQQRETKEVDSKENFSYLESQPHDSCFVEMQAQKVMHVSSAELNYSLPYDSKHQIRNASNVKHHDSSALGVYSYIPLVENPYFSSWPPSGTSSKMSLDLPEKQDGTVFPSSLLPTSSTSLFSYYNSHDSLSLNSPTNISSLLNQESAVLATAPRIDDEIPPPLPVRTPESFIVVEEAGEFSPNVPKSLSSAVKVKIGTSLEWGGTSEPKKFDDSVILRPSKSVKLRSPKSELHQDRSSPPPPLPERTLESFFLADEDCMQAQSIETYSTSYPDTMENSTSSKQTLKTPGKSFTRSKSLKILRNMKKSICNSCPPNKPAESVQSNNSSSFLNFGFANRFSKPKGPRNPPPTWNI

[10] = test system: Streptococcus sp. 'group A'; test: growth inhibition of control SK(-) GAS strain, dose response, counter-screen for streptokinase expression inhibitor project, luminescence, kanamycin, BacTiterGlo, confirmation (AID 1900); format: functional, organism-based
[11] = molecular target: T4, Tyrosine-protein phosphatase non-receptor type 22; format: functional; remark: listed apart in the source
[12] = THP-1 cell cytotoxicity, dose response, cytotoxicity control for Vif-APOBEC3G degradation inhibitor project, THP-1 cells (AID 1117359); format: functional; conditions: Human immunodeficiency virus 1, THP-1
[13] = molecular target: Glucose-6-phosphate 1-dehydrogenase (Homo sapiens, UniProt P11413); test: human G6PD enzyme inhibitors, dose response, selectivity assay for P. falciparum G6PD inhibitor project, biochemical, fluorescence (AID 504792); format: functional
[14] = molecular target: T5, Mannose-6-phosphate isomerase (Homo sapiens, UniProt P34949); test: human PMI inhibitors, high substrate, primary screen, biochemical, fluorescence intensity, high mannose 6-phosphate (AID 1220)
T5 sequence (P34949 whole entry): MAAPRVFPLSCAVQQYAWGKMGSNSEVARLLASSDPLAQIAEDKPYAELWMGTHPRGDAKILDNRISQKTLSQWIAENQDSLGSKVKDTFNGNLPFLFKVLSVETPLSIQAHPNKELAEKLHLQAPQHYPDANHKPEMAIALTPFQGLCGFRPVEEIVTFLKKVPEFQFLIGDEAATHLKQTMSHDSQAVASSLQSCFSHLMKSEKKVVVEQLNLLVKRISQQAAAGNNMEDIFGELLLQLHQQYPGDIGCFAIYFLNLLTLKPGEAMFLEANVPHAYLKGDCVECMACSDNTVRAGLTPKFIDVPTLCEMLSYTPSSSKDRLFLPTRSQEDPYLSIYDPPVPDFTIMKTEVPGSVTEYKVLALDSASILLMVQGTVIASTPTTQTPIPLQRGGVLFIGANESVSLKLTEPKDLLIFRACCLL

Protein Tat = molecular target: T6, Protein Tat (Human immunodeficiency virus type 1 group M subtype B (isolate HXB2)(HIV-1), UniProt P04608); format: functional;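 note: tat binding to TAR RNA read out by fluorescence polarization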
T6 sequence (P04608 whole entry): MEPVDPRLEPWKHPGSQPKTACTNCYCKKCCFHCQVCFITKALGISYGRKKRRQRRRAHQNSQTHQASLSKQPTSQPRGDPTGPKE

Sequence of Delta-type opioid receptor (P41143 whole entry): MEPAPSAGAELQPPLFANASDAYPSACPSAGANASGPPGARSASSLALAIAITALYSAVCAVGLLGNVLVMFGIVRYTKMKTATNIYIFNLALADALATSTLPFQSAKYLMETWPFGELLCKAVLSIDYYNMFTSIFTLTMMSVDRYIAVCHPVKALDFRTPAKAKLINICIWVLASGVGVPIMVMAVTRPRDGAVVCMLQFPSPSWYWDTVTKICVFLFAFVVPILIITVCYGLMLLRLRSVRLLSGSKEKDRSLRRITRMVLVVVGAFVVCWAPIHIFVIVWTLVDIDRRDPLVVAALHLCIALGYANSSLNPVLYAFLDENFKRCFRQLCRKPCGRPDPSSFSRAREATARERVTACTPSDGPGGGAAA
Sequence of 5-hydroxytryptamine receptor 5A (P47898 whole entry): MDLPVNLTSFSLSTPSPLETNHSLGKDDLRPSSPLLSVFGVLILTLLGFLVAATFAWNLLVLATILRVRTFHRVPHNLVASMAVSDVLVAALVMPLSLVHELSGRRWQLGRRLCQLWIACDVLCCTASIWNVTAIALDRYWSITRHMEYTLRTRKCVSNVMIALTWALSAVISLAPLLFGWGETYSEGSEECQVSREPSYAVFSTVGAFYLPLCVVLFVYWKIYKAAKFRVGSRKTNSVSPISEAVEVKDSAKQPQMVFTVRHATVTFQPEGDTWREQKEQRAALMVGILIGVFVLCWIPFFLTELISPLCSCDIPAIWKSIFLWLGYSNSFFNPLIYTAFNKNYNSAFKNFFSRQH
Sequence of Mu-type opioid receptor (P35372 whole entry): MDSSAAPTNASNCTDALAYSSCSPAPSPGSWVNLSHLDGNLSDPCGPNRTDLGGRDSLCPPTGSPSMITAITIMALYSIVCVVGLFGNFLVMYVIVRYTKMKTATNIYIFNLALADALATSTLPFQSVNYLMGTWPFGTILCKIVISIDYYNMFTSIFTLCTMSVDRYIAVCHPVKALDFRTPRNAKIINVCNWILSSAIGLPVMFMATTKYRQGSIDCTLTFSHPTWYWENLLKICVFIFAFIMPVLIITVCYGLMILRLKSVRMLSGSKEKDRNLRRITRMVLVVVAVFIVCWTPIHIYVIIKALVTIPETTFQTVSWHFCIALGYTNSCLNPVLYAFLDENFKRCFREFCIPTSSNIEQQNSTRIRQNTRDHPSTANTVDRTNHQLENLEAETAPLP
Sequence of Glucose-6-phosphate 1-dehydrogenase (P11413 whole entry): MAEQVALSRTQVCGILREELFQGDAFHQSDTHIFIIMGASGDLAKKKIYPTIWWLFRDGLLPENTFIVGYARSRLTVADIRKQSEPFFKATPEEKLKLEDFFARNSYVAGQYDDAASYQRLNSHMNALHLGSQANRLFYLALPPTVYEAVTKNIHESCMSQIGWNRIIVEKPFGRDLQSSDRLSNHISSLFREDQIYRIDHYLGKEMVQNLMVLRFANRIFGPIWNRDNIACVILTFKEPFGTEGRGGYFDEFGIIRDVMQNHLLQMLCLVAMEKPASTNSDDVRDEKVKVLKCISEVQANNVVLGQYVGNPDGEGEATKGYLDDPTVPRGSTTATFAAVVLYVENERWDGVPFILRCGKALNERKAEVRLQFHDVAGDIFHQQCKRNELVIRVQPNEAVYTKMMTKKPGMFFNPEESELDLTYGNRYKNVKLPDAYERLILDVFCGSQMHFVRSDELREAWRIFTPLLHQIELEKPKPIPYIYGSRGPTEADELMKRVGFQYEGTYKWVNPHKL

In the case of Cc1cc(/C=C2/C(=O)NN(c3ccccc3)C2=O)c(C)n1-c1ccc(O)cc1, the EC50 (Mu-type opioid receptor) is reported as > 92.5 µM (inactive), the EC50 (H4) is reported as < 0.1 µM (active) and the EC50 [1] is reported as 9.3 µM (active). For the same compound, the EC50 [2] was 4.81 µM (active) and the EC50 [3] was > 92.5 µM (inactive).
With CC1[C@H]2Cc3ccc(O)cc3[C@]1(C)CCN2C (stereo partly drawn) the EC50 (Mu-type opioid receptor) was > 92.4 µM (inactive), the EC50 [1] was > 92.4 µM (inactive) and the EC50 [3] was > 92.4 µM (inactive).
In the case of O=C(N/N=C/c1ccccn1)c1ccc(Cl)c(Cl)c1, the CC50 (Vero) is reported as > 25 µM (active), the EC50 (Streptococcus) is reported as 22.9 µM (active) and the EC50 (BJ [4]) is reported as > 150 µM (not active). For the same compound, the EC50 [5] was > 150 µM (not active), the EC50 (BJ [6]) was 21.6 µM (active) and the EC50 (BJ [7]) was > 150 µM (not active). The IC50 [8] was > 79.4 µM (inactive), the EC50 (Streptokinase A) was > 150 µM (not active) and the IC50 [9] was > 79.4 µM (inactive). For the same compound, the EC50 [10] was 6.21 µM (active) and the IC50 [11] was > 79.4 µM (inactive).
In the case of CCOc1ccc(CNc2ccc(N3CCCC3)cc2)cc1, the CC50 [12] is reported as > 40 µM (active), the IC50 [13] is reported as > 80 µM (inactive) and the IC50 [14] is reported as > 50 µM (not active). The IC50 (Protein Tat) was 75.3 µM (inconclusive).

— ChEMBL document CHEMBL1201862, “PubChem BioAssay data set” (2004)
